Source: patent publication US9469650B2, “Melampomagnolide B derivatives” (BOARD OF TRUSTEES OF THE UNIVERSITY OF ARKANSAS, priority 2013, dated 2016)

What was measured:
BT-549 = assay: panel of 60 human tumor cell lines, growth inhibition (Breast Cancer); details: BT-549
IGROV1 = assay: panel of 60 human tumor cell lines, growth inhibition (Ovarian Cancer); details: IGROVI
RXF 393 = assay: panel of 60 human tumor cell lines, growth inhibition (Renal Cancer); details: RXF 393
NCI-H23 = assay: panel of 60 human tumor cell lines, growth inhibition (Non-Small Cell Lung Cancer); details: NCI-H23
OVCAR-3 = assay: panel of 60 human tumor cell lines, growth inhibition (Ovarian Cancer); details: OVCAR-3
UACC-257 = assay: panel of 60 human tumor cell lines, growth inhibition (Melanoma); details: UACC-257
OVCAR-8 = assay: panel of 60 human tumor cell lines, growth inhibition (Ovarian Cancer); details: OVCAR-8
MDA-MB-468 = assay: panel of 60 human tumor cell lines, growth inhibition (Breast Cancer); details: MDA-MB-468
CCRF-CEM = assay: panel of 60 human tumor cell lines, growth inhibition (Leukemia)
MCF7 = assay: panel of 60 human tumor cell lines, growth inhibition (Breast Cancer); details: MCF7
SK-OV-3 = assay: panel of 60 human tumor cell lines, growth inhibition (Ovarian Cancer); details: SK-OV-3
NCI-H522 = assay: panel of 60 human tumor cell lines, growth inhibition (Non-Small Cell Lung Cancer); details: NCI-H522
TK-10 = assay: panel of 60 human tumor cell lines, growth inhibition (Renal Cancer); details: TK-10
HCT-15 = assay: panel of 60 human tumor cell lines, growth inhibition (Colon Cancer); details: HCT-15
A549/ATCC = assay: panel of 60 human tumor cell lines, growth inhibition (Non-Small Cell Lung Cancer); details: A549/ATCC
HOP-92 = assay: as above; details: HOP-92
COLO 205 = assay: panel of 60 human tumor cell lines, growth inhibition (Colon Cancer); details: COLO 205
SK-MEL-5 = assay: panel of 60 human tumor cell lines, growth inhibition (Melanoma); details: 8K-MEL-5

For `C=C1C(=O)O[C@H]2[C@H]1CC/C(COC(=O)CCC(=O)N1CCC(C)CC1)=C\CC[C@@]1(C)O[C@@H]21` [JVM 2-70], the “Percent Growth” value (BT-549; Log10 Concentration −4.0) was −96%, the “Percent Growth” value (BT-549; Log10 Concentration −5.0) was −10% and the “Percent Growth” value (BT-549; Log10 Concentration −6.0) was 71%. For the same compound, the “Percent Growth” value (BT-549; Log10 Concentration −7.0) was 86%, the “Percent Growth” value (BT-549; Log10 Concentration −8.0) was 81% and the GI50 (BT-549; NCI five dose) was 1.82 µM. The TGI (BT-549; NCI five dose) was 7.55E−6, the “Percent Growth” value (IGROV1; Log10 Concentration −4.0) was −52% and the “Percent Growth” value (IGROV1; Log10 Concentration −5.0) was 19%. For the same compound, the “Percent Growth” value (IGROV1; Log10 Concentration −6.0) was 104%, the “Percent Growth” value (IGROV1; Log10 Concentration −7.0) was 118% and the “Percent Growth” value (IGROV1; Log10 Concentration −8.0) was 109%. The GI50 (IGROV1; NCI five dose) was 4.32 µM, the TGI (IGROV1; NCI five dose) was 1.85E−5 and the “Percent Growth” value (RXF 393; Log10 Concentration −4.0) was −88%. The “Percent Growth” value (RXF 393; Log10 Concentration −5.0) was −54%, the “Percent Growth” value (RXF 393; Log10 Concentration −6.0) was 91% and the “Percent Growth” value (RXF 393; Log10 Concentration −7.0) was 101%. The “Percent Growth” value (RXF 393; Log10 Concentration −8.0) was 105%, the GI50 (RXF 393; NCI five dose) was 1.91 µM and the TGI (RXF 393; NCI five dose) was 4.24E−6. The “Percent Growth” value (NCI-H23; Log10 Concentration −4.0) was −70%, the “Percent Growth” value (NCI-H23; Log10 Concentration −5.0) was 33% and the “Percent Growth” value (NCI-H23; Log10 Concentration −6.0) was 94%. The “Percent Growth” value (NCI-H23; Log10 Concentration −7.0) was 101%, the “Percent Growth” value (NCI-H23; Log10 Concentration −8.0) was 95% and the GI50 (NCI-H23; NCI five dose) was 5.24 µM. The TGI (NCI-H23; NCI five dose) was 2.09E−5, the “Percent Growth” value (OVCAR-3; Log10 Concentration −4.0) was −96% and the “Percent Growth” value (OVCAR-3; Log10 Concentration −5.0) was −2%. For the same compound, the “Percent Growth” value (OVCAR-3; Log10 Concentration −6.0) was 88%, the “Percent Growth” value (OVCAR-3; Log10 Concentration −7.0) was 105% and the “Percent Growth” value (OVCAR-3; Log10 Concentration −8.0) was 109%. The GI50 (OVCAR-3; NCI five dose) was 2.85 to 6 µM, the TGI (OVCAR-3; NCI five dose) was 9.47E−6 and the “Percent Growth” value (UACC-257; Log10 Concentration −4.0) was −86%. For the same compound, the “Percent Growth” value (UACC-257; Log10 Concentration −5.0) was 23%, the “Percent Growth” value (UACC-257; Log10 Concentration −6.0) was 83% and the “Percent Growth” value (UACC-257; Log10 Concentration −7.0) was 92%. For the same compound, the “Percent Growth” value (UACC-257; Log10 Concentration −8.0) was 91%, the GI50 (UACC-257; NCI five dose) was 3.57 µM and the TGI (UACC-257; NCI five dose) was 1.64E−5. For the same compound, the “Percent Growth” value (OVCAR-8; Log10 Concentration −4.0) was −88%, the “Percent Growth” value (OVCAR-8; Log10 Concentration −5.0) was 15% and the “Percent Growth” value (OVCAR-8; Log10 Concentration −6.0) was 89%. The “Percent Growth” value (OVCAR-8; Log10 Concentration −7.0) was 95%, the “Percent Growth” value (OVCAR-8; Log10 Concentration −8.0) was 94% and the GI50 (OVCAR-8; NCI five dose) was 3.37 µM. For the same compound, the TGI (OVCAR-8; NCI five dose) was 1.39E−5, the “Percent Growth” value (MDA-MB-468; Log10 Concentration −4.0) was −69% and the “Percent Growth” value (MDA-MB-468; Log10 Concentration −5.0) was −33%. The “Percent Growth” value (MDA-MB-468; Log10 Concentration −6.0) was 52%, the “Percent Growth” value (MDA-MB-468; Log10 Concentration −7.0) was 92% and the “Percent Growth” value (MDA-MB-468; Log10 Concentration −8.0) was 88%. The GI50 (MDA-MB-468; NCI five dose) was 1.06 µM, the TGI (MDA-MB-468; NCI five dose) was 4.06E−6 and the CC50 (MDA-MB-468; read-out: LC50, NCI five dose) was 29.8 µM. For the same compound, the “Percent Growth” value (CCRF-CEM; Log10 Concentration −4.0) was −56%, the “Percent Growth” value (CCRF-CEM; Log10 Concentration −5.0) was −32% and the “Percent Growth” value (CCRF-CEM; Log10 Concentration −6.0) was 64%. The “Percent Growth” value (CCRF-CEM; Log10 Concentration −7.0) was 92%, the “Percent Growth” value (CCRF-CEM; Log10 Concentration −8.0) was 98% and the GI50 (CCRF-CEM; NCI five dose) was 1.4 µM. The TGI (CCRF-CEM; NCI five dose) was 4.68E−6, the “Percent Growth” value (MCF7; Log10 Concentration −4.0) was −63% and the “Percent Growth” value (MCF7; Log10 Concentration −5.0) was 4%. The “Percent Growth” value (MCF7; Log10 Concentration −6.0) was 74%, the “Percent Growth” value (MCF7; Log10 Concentration −7.0) was 88% and the “Percent Growth” value (MCF7; Log10 Concentration −8.0) was 83%. For the same compound, the GI50 (MCF7; NCI five dose) was 2.22 µM, the TGI (MCF7; NCI five dose) was 1.16E−5 and the “Percent Growth” value (SK-OV-3; Log10 Concentration −4.0) was −10%. For the same compound, the “Percent Growth” value (SK-OV-3; Log10 Concentration −5.0) was 95%, the “Percent Growth” value (SK-OV-3; Log10 Concentration −6.0) was 99% and the “Percent Growth” value (SK-OV-3; Log10 Concentration −7.0) was 101%. For the same compound, the “Percent Growth” value (SK-OV-3; Log10 Concentration −8.0) was 92%, the GI50 (SK-OV-3; NCI five dose) was 26.8 µM and the TGI (SK-OV-3; NCI five dose) was 8.06E−5. For the same compound, the “Percent Growth” value (NCI-H522; Log10 Concentration −4.0) was −71%, the “Percent Growth” value (NCI-H522; Log10 Concentration −5.0) was −87% and the “Percent Growth” value (NCI-H522; Log10 Concentration −6.0) was 80%. For the same compound, the “Percent Growth” value (NCI-H522; Log10 Concentration −7.0) was 96%, the “Percent Growth” value (NCI-H522; Log10 Concentration −8.0) was 93% and the GI50 (NCI-H522; NCI five dose) was 1.5 µM. For the same compound, the TGI (NCI-H522; NCI five dose) was 3.00E−6, the “Percent Growth” value (TK-10; Log10 Concentration −4.0) was −97% and the “Percent Growth” value (TK-10; Log10 Concentration −5.0) was 9%. For the same compound, the “Percent Growth” value (TK-10; Log10 Concentration −6.0) was 109%, the “Percent Growth” value (TK-10; Log10 Concentration −7.0) was 106% and the “Percent Growth” value (TK-10; Log10 Concentration −8.0) was 97%. The GI50 (TK-10; NCI five dose) was 3.9 µM, the TGI (TK-10; NCI five dose) was 1.23E−5 and the “Percent Growth” value (HCT-15; Log10 Concentration −4.0) was −70%. For the same compound, the “Percent Growth” value (HCT-15; Log10 Concentration −5.0) was −29%, the “Percent Growth” value (HCT-15; Log10 Concentration −6.0) was 74% and the “Percent Growth” value (HCT-15; Log10 Concentration −7.0) was 91%. For the same compound, the “Percent Growth” value (HCT-15; Log10 Concentration −8.0) was 90%, the GI50 (HCT-15; NCI five dose) was 1.7 µM and the TGI (HCT-15; NCI five dose) was 5.22E−6. For the same compound, the “Percent Growth” value (A549/ATCC; Log10 Concentration −4.0) was −68%, the “Percent Growth” value (A549/ATCC; Log10 Concentration −5.0) was 79% and the “Percent Growth” value (A549/ATCC; Log10 Concentration −6.0) was 93%. The “Percent Growth” value (A549/ATCC; Log10 Concentration −7.0) was 96%, the “Percent Growth” value (A549/ATCC; Log10 Concentration −8.0) was 97% and the GI50 (A549/ATCC; NCI five dose) was 15.8 µM. For the same compound, the TGI (A549/ATCC; NCI five dose) was 3.47E−5, the “Percent Growth” value (HOP-92; Log10 Concentration −4.0) was −91% and the “Percent Growth” value (HOP-92; Log10 Concentration −5.0) was 3%. The “Percent Growth” value (HOP-92; Log10 Concentration −6.0) was 71%, the “Percent Growth” value (HOP-92; Log10 Concentration −7.0) was 83% and the “Percent Growth” value (HOP-92; Log10 Concentration −8.0) was 87%. The GI50 (HOP-92; NCI five dose) was 2.05 µM, the TGI (HOP-92; NCI five dose) was 1.07E−5 and the “Percent Growth” value (COLO 205; Log10 Concentration −4.0) was −88%. The “Percent Growth” value (COLO 205; Log10 Concentration −5.0) was −11%, the “Percent Growth” value (COLO 205; Log10 Concentration −6.0) was 104% and the “Percent Growth” value (COLO 205; Log10 Concentration −7.0) was 107%. The “Percent Growth” value (COLO 205; Log10 Concentration −8.0) was 94%, the GI50 (COLO 205; NCI five dose) was 2.94 µM and the TGI (COLO 205; NCI five dose) was 8.03E−6. For the same compound, the “Percent Growth” value (SK-MEL-5; Log10 Concentration −4.0) was −93%, the “Percent Growth” value (SK-MEL-5; Log10 Concentration −5.0) was 42% and the “Percent Growth” value (SK-MEL-5; Log10 Concentration −6.0) was 96%. The “Percent Growth” value (SK-MEL-5; Log10 Concentration −7.0) was 99%, the “Percent Growth” value (SK-MEL-5; Log10 Concentration −8.0) was 98% and the GI50 (SK-MEL-5; NCI five dose) was 7.17 µM. For the same compound, the TGI (SK-MEL-5; NCI five dose) was 2.05E−5.
